The record followed here is publication PMC6661729, “In silico design and synthesis of hesperitin derivatives as new xanthine oxidase inhibitors” (BMC Chemistry, 2019).

The target of one test is T1, human xanthine oxidase (Homo sapiens, UniProt P47989).
T1 construct: purchased Sigma (sigma-aldrich.co, USA) MAK078
Briefly: In vitro xanthine oxidase inhibitory activity (XO activity assay kit, H2O2 read at 570 nm). The test is classed as biochemical. The settings on record: 25 °C, xanthine substrate, allopurinol positive control; read-out: IC50 xanthine oxidase inhibition. As to the method: For this research, the analytical grade chemicals necessary for synthesis and antioxidant activity were purchased from Hi-media Laboratories. The in vitro evaluation of the human xanthine oxidase inhibitory activity was performed by measuring hydrogen peroxide (H2O2) production from oxidation of […], utilizing the human xanthine oxidase assay kit (Sigma USA). The progress of reaction was observed through thin layer chromatography (TLC) on 0.25 mm precoated silica gel plates purchased from Merck, reaction spots were envisaged in iodine compartment and UV. Melting points were measured using a Sonar melting point apparatus and uncorrected. ^1H NMR and ^13C NMR spectra were documented in DMSO and deuterated CDCl3 respectively on Bruker Avance II 400 NMR spectrometer at the frequency of 400 MHz using tetramethylsilane standard (downfield) moreover chemical shifts were expressed in ppm (δ) using the residual solvent line as internal standard. Infrared (IR) spectra were recorded on Perkin Elmer FTIR spectrophotometer by utilizing KBr pellets system.
The method opted to evaluate the inhibitory potential of hesperitin derivatives was a modified protocol of Sigma, done by UV-spectrophotometric method by using xanthine oxidase activity assay kit purchased from sigma (MAK078, sigma-aldrich.co, USA). The colorimetric product obtained in the form of hydrogen peroxide generated during the oxidation of XO was determined by a coupled enzyme technique, measured at 570 nm in a 96-well plate, using the plate reader EPOCH™ “MICROPLATE READER (BIOTEK)”. One unit of XO is defined as the amount of enzyme that catalyzes the oxidation of xanthine substrate, yielding 1.0 µmol of uric acid and hydrogen peroxide per minute at 25 °C. Reagents used were 44 µL of xanthine oxidase assay buffer, 2 µL xanthine substrate solution and 2 µL of xanthine oxidase enzyme solution. All the solutions mentioned above were mixed to prepare reaction mixture. The different concentrations of synthesized derivatives having final volume 50 µL were prepared in dimethyl sulfoxide (DMSO) and added to 96 well plate. To each well 50 µL of reaction mix was added and mixed well. After 2–3 min initial measurement was taken. The plates were incubated at 25 °C taking measurements at every 5 min.

The nature of test [1]: Antioxidant activity by DPPH method. The following applies: methanol, 37 °C, 517 nm; ascorbic acid positive control; read-out: IC50 ± SEM (DPPH assay). As to the method:
The antioxidant potential of hesperitin derivatives was performed by DPPH method evaluated in the form of IC50 estimated using the ELISA plate reader EPOCH™ “MICROPLATE READER (BIOTEK)”. This method opted for evaluation of free radical scavenging activity of DPPH was base on modified procedure described by Dhiman et al.. The tested compounds were prepared in methanolic solution and reacted with methanolic solution of DPPH at 37 °C. The reaction mixture was prepared in 96-well plate by adding 50 µL of sample, 50 µL […] of methanol and 50 µL of DPPH solution prepared in 0.1 mM in methanol. The mechanism of action of DPPH assay was based on the fact that DPPH radical get reduced during its reaction with an antioxidant compound and results in changes of color (from deep violet to light yellow). The absorbance was read at 517 nm for 30 min at an interval of 5 min of using ELISA microplate reader. The mixture of methanol (5.0 mL) and tested compounds (0.2 mL) serve as blank. Ascorbic acid served as positive control.

Test [2] in a line: Hydrogen peroxide scavenging (H2O2) assay. The following applies: phosphate buffer pH 7.4, 230 nm, 10 min; L-ascorbic acid standard; read-out: IC50 ± SEM (hydrogen peroxide assay). As to the method: To compare and best evaluate the antioxidant potential of newly synthesized hesperitin derivatives, hydrogen peroxide assay was performed by the method described by Patel et al. with some modifications. The solution of H2O2 (100 mM) was prepared via the adding up different concentrations of synthesized derivatives ranging from 5 to 80 μg/mL to H2O2 solution (2 mL), prepared in 20 mM phosphate buffer of pH 7.4. Finally, the absorbance of H2O2 was measured at 230 nm after incubating for 10 min next to a blank reading of phosphate buffer without H2O2. For every measurement, a fresh reading of blank was taken to carry out background correction. For control sample containing H2O2 was scanned for absorbance at 230 nm. Results calculated as percentage of hydrogen peroxide inhibition was estimated by the formula [(Ab − At)/[…]] × 100, where Ab is the absorbance of the control and At is the absorbance of compounds/standard taken as L-ascorbic acid (5–80 μg/mL) are shown in Table 3.

The subject of a further test is xanthine oxidase. Briefly: Enzyme kinetic analysis for XO-inhibitory activity (Michaelis-Menten, Lineweaver-Burk). The test is classed as biochemical, human. The following applies: without inhibitor 117.6. As to the method:
Firstly Michaelis–Menten curve was plotted for the enzyme activity at different concentrations of HET4 against different concentration of xanthine substrate (Fig. 6).
Then double reciprocal plot (Lineweaver–Burk) analysis was done in the presence (0.25, 0.5, and 1.0 µM) and absence of HET4 from in vitro data generated during the oxidation of xanthine in presence of xanthine oxidase (Fig. 7). The x- and y-axis intercepts of the Lineweaver–Burk plot were utilized to calculate Km and Vmax values of HET4 at different concentrations (Table 2).

Structures are written as SMILES.

T1 sequence (P47989 whole entry): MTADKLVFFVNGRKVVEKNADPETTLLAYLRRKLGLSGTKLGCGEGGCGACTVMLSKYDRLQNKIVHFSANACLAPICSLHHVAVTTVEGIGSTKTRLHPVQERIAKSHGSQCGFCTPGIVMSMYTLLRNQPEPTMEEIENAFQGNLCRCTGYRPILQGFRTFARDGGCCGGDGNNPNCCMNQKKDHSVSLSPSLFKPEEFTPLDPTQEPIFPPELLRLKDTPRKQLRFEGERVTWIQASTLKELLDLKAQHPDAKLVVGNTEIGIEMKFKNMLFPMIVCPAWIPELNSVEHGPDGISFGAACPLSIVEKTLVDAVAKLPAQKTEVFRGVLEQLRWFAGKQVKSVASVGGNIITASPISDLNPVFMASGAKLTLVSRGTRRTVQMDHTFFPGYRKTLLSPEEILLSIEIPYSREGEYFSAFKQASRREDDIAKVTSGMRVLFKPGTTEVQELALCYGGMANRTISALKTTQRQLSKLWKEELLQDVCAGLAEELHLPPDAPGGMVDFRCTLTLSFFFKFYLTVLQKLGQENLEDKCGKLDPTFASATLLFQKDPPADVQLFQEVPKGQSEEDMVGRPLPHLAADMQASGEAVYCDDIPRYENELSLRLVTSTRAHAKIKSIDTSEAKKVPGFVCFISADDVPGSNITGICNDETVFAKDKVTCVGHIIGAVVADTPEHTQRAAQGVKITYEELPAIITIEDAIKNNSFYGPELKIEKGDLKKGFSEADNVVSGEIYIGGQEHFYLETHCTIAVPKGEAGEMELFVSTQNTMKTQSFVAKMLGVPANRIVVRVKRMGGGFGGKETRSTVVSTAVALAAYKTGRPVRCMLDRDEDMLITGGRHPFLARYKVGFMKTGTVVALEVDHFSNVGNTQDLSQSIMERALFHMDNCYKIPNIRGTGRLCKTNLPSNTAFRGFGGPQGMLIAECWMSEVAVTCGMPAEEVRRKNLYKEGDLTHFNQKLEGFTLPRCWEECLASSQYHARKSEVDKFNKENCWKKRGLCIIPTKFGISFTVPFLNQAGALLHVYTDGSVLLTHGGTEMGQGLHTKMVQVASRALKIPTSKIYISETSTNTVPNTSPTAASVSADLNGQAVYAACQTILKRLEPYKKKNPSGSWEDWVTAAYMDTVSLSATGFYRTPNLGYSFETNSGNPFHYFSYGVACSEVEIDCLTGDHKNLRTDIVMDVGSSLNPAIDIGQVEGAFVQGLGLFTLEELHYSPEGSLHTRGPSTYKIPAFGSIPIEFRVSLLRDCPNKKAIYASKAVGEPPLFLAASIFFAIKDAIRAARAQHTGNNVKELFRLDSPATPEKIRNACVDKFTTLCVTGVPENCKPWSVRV
Chain of xanthine oxidase (P47989 whole entry): as above

Regarding `COc1ccc([C@@H]2CC(=O)c3c(OC)cc(OC(=O)c4ccccc4S)cc3O2)cc1OC` [HET2], the half-maximal inhibitory concentration (IC50) at human xanthine oxidase came to 23.2 ± 1.25 µM; in test [1], 6.71 ± 0.15 µM; in test [2], 8.547 ± 0.06 µM.

`COc1ccc([C@@H]2CC(=O)c3c(OC)cc(OC(=O)C(O)c4ccccc4)cc3O2)cc1OC` (some centres unmarked) [HET3]: the concentration for half-maximal inhibition (IC50) at human xanthine oxidase came to 12.9 ± 0.72 µM; in test [2] it was 3.322 ± 0.01 µM.

As to `COc1ccc([C@@H]2CC(=O)c3c(OC)cc(OC(=O)c4cccnc4)cc3O2)cc1OC` [HET5], the IC50 on human xanthine oxidase came to 10.8 µM; in test [1], 4.82 ± 0.06 µM; in test [2] it was 6.37 ± 0.26 µM.

On to `COc1ccc([C@@H]2CC(=O)c3c(OC)cc(OC(=O)/C=C/c4ccc(O)c(O)c4)cc3O2)cc1OC` [HET4], for which the IC50 was 9.09 µM at human xanthine oxidase, 1.633 ± 0.01 µM in test [1] and 4.642 ± 0.03 µM in test [2]. Besides, the “Vmax of xanthine oxidase” value in the test with xanthine oxidase (Conc. of HET4 0.25 µM) came out at 116.4 µmol/min; in the test on xanthine oxidase (Conc. of HET4 0.5 µM), 112.2 µmol/min; in the test on xanthine oxidase (Conc. of HET4 1.0 µM) it was 103.7 µmol/min.

As for `COc1ccc([C@@H]2CC(=O)c3c(O)cc(O)cc3O2)cc1O` [Hesperitin], the half-maximal inhibitory concentration (IC50) at human xanthine oxidase was 29.25 ± 0.12 µM; in test [1], 12.9 ± 0.2 µM; in test [2], 14.43 ± 0.14 µM.

As to `COc1cc(C(=O)Oc2cc(OC)c3c(c2)O[C@H](c2ccc(OC)c(OC)c2)CC3=O)ccc1O` [HET6], the IC50 at human xanthine oxidase came to 11.7 µM; in test [1], 7.11 ± 0.13 µM; in test [2], 7.51 ± 0.02 µM.
